Experimental data from the NIST ThermoML archive (doi:10.1021/je0201323).
Numbers after ± are expanded uncertainties.

Test: xn = mol fraction of the nth substance listed
Conditions: for mass density: 101.3 kPa, Liquid, vibrating tube; for surface tension liquid-gas: Pendant drop shape

SMILES: Cc1ccccc1 [toluene] + CCCCCCC
- mass density (278.15 K, x2 = 0): 880.3 ± 0.2 kg/m3
- mass density (278.15 K, x2 = 0.15): 843.7 ± 0.3 kg/m3
- mass density (278.15 K, x2 = 0.299): 811.3 ± 0.3 kg/m3
- mass density (278.15 K, x2 = 0.449): 782 ± 0.3 kg/m3
- mass density (278.15 K, x2 = 0.595): 756.4 ± 0.3 kg/m3
- mass density (278.15 K, x2 = 0.749): 732.6 ± 0.3 kg/m3
- mass density (283.15 K, x2 = 0): 875.9 ± 0.2 kg/m3
- mass density (283.15 K, x2 = 0.15): 839.3 ± 0.3 kg/m3
- mass density (283.15 K, x2 = 0.299): 807 ± 0.3 kg/m3
- mass density (283.15 K, x2 = 0.449): 777.8 ± 0.3 kg/m3
- mass density (283.15 K, x2 = 0.595): 752.2 ± 0.3 kg/m3
- mass density (283.15 K, x2 = 0.749): 728.4 ± 0.3 kg/m3
- surface tension liquid-gas (287.81 K, x2 = 0): 28.93 ± 0.31 mN/m
- surface tension liquid-gas (287.81 K, x2 = 0.299): 24.49 ± 0.28 mN/m
- surface tension liquid-gas (287.81 K, x2 = 0.449): 23.38 ± 0.27 mN/m
- surface tension liquid-gas (287.81 K, x2 = 0.595): 22.41 ± 0.27 mN/m
- surface tension liquid-gas (287.81 K, x2 = 0.749): 21.58 ± 0.26 mN/m
- mass density (288.15 K, x2 = 0): 871.4 ± 0.2 kg/m3
- mass density (288.15 K, x2 = 0.15): 834.9 ± 0.3 kg/m3
- mass density (288.15 K, x2 = 0.299): 802.7 ± 0.3 kg/m3
- mass density (288.15 K, x2 = 0.449): 773.5 ± 0.3 kg/m3
- mass density (288.15 K, x2 = 0.595): 747.9 ± 0.3 kg/m3
- mass density (288.15 K, x2 = 0.749): 724.2 ± 0.3 kg/m3
- mass density (293.15 K, x2 = 0): 866.9 ± 0.2 kg/m3
- mass density (293.15 K, x2 = 0.15): 830.5 ± 0.3 kg/m3
- mass density (293.15 K, x2 = 0.299): 798.3 ± 0.3 kg/m3
- mass density (293.15 K, x2 = 0.449): 769.1 ± 0.3 kg/m3
- mass density (293.15 K, x2 = 0.595): 743.6 ± 0.3 kg/m3
- mass density (293.15 K, x2 = 0.749): 719.9 ± 0.3 kg/m3
- surface tension liquid-gas (297.82 K, x2 = 0): 27.76 ± 0.3 mN/m
- surface tension liquid-gas (297.82 K, x2 = 0.15): 25.16 ± 0.28 mN/m
- surface tension liquid-gas (297.82 K, x2 = 0.299): 23.47 ± 0.27 mN/m
- surface tension liquid-gas (297.82 K, x2 = 0.449): 22.17 ± 0.26 mN/m
- surface tension liquid-gas (297.82 K, x2 = 0.595): 21.35 ± 0.26 mN/m
- surface tension liquid-gas (297.82 K, x2 = 0.749): 20.56 ± 0.25 mN/m
- mass density (298.15 K, x2 = 0): 862.4 ± 0.2 kg/m3
- mass density (298.15 K, x2 = 0.15): 826 ± 0.3 kg/m3
- mass density (298.15 K, x2 = 0.299): 794.1 ± 0.3 kg/m3
- mass density (298.15 K, x2 = 0.449): 764.7 ± 0.3 kg/m3
- mass density (298.15 K, x2 = 0.595): 739.2 ± 0.3 kg/m3
- mass density (298.15 K, x2 = 0.749): 715.6 ± 0.3 kg/m3
- mass density (303.15 K, x2 = 0): 857.8 ± 0.2 kg/m3
- mass density (303.15 K, x2 = 0.15): 821.5 ± 0.3 kg/m3
- mass density (303.15 K, x2 = 0.299): 789.4 ± 0.3 kg/m3
- mass density (303.15 K, x2 = 0.449): 760.3 ± 0.3 kg/m3
- mass density (303.15 K, x2 = 0.595): 734.8 ± 0.3 kg/m3
- mass density (303.15 K, x2 = 0.749): 711.2 ± 0.3 kg/m3
- surface tension liquid-gas (307.86 K, x2 = 0): 26.6 ± 0.29 mN/m
- surface tension liquid-gas (307.86 K, x2 = 0.15): 24.08 ± 0.27 mN/m
- surface tension liquid-gas (307.86 K, x2 = 0.299): 22.42 ± 0.26 mN/m
- surface tension liquid-gas (307.86 K, x2 = 0.449): 21.23 ± 0.25 mN/m
- surface tension liquid-gas (307.86 K, x2 = 0.595): 20.31 ± 0.25 mN/m
- surface tension liquid-gas (307.86 K, x2 = 0.749): 19.62 ± 0.25 mN/m
- mass density (308.15 K, x2 = 0): 853.2 ± 0.2 kg/m3
- mass density (308.15 K, x2 = 0.15): 817 ± 0.3 kg/m3
- mass density (308.15 K, x2 = 0.299): 784.9 ± 0.3 kg/m3
- mass density (308.15 K, x2 = 0.449): 755.8 ± 0.3 kg/m3
- mass density (308.15 K, x2 = 0.595): 730.4 ± 0.3 kg/m3
- mass density (308.15 K, x2 = 0.749): 706.8 ± 0.3 kg/m3
- mass density (313.15 K, x2 = 0): 848.6 ± 0.2 kg/m3
- mass density (313.15 K, x2 = 0.15): 812.4 ± 0.3 kg/m3
- mass density (313.15 K, x2 = 0.299): 780.4 ± 0.3 kg/m3
- mass density (313.15 K, x2 = 0.449): 751.3 ± 0.3 kg/m3
- mass density (313.15 K, x2 = 0.595): 725.9 ± 0.3 kg/m3
- mass density (313.15 K, x2 = 0.749): 702.4 ± 0.3 kg/m3
- surface tension liquid-gas (317.86 K, x2 = 0): 25.46 ± 0.28 mN/m
- surface tension liquid-gas (317.86 K, x2 = 0.15): 23.03 ± 0.26 mN/m
- surface tension liquid-gas (317.86 K, x2 = 0.299): 21.39 ± 0.25 mN/m
- surface tension liquid-gas (317.86 K, x2 = 0.449): 20.28 ± 0.25 mN/m
- surface tension liquid-gas (317.86 K, x2 = 0.595): 19.37 ± 0.24 mN/m
- surface tension liquid-gas (317.86 K, x2 = 0.749): 18.62 ± 0.24 mN/m
- mass density (318.15 K, x2 = 0): 843.9 ± 0.2 kg/m3
- mass density (318.15 K, x2 = 0.15): 807.8 ± 0.3 kg/m3
- mass density (318.15 K, x2 = 0.299): 775.8 ± 0.3 kg/m3
- mass density (318.15 K, x2 = 0.449): 746.8 ± 0.3 kg/m3
- mass density (318.15 K, x2 = 0.595): 721.4 ± 0.3 kg/m3
- mass density (318.15 K, x2 = 0.749): 697.9 ± 0.3 kg/m3
- mass density (323.15 K, x2 = 0): 839.2 ± 0.2 kg/m3
- mass density (323.15 K, x2 = 0.15): 803.1 ± 0.3 kg/m3
- mass density (323.15 K, x2 = 0.299): 771.2 ± 0.3 kg/m3
- mass density (323.15 K, x2 = 0.449): 742.2 ± 0.3 kg/m3
- mass density (323.15 K, x2 = 0.595): 716.9 ± 0.3 kg/m3
- mass density (323.15 K, x2 = 0.749): 693.4 ± 0.3 kg/m3
- surface tension liquid-gas (327.88 K, x2 = 0): 24.29 ± 0.27 mN/m
- surface tension liquid-gas (327.88 K, x2 = 0.15): 22.05 ± 0.26 mN/m
- surface tension liquid-gas (327.88 K, x2 = 0.299): 20.44 ± 0.25 mN/m
- surface tension liquid-gas (327.88 K, x2 = 0.449): 19.31 ± 0.24 mN/m
- surface tension liquid-gas (327.88 K, x2 = 0.595): 18.43 ± 0.24 mN/m
- surface tension liquid-gas (327.88 K, x2 = 0.749): 17.66 ± 0.23 mN/m
- mass density (328.15 K, x2 = 0): 834.5 ± 0.2 kg/m3
- mass density (328.15 K, x2 = 0.15): 798.5 ± 0.3 kg/m3
- mass density (328.15 K, x2 = 0.299): 766.5 ± 0.3 kg/m3
- mass density (328.15 K, x2 = 0.449): 737.6 ± 0.3 kg/m3
- mass density (328.15 K, x2 = 0.595): 712.3 ± 0.3 kg/m3
- mass density (328.15 K, x2 = 0.749): 688.8 ± 0.3 kg/m3
- mass density (333.15 K, x2 = 0): 829.8 ± 0.2 kg/m3
- mass density (333.15 K, x2 = 0.15): 793.8 ± 0.2 kg/m3
- mass density (333.15 K, x2 = 0.299): 761.8 ± 0.3 kg/m3
- mass density (333.15 K, x2 = 0.449): 733 ± 0.3 kg/m3
- mass density (333.15 K, x2 = 0.595): 707.7 ± 0.3 kg/m3
- mass density (333.15 K, x2 = 0.749): 684.2 ± 0.3 kg/m3
